Calls of active or inactive are those of the source. No cut-off for these calls is given here.
What was measured:
[1] = Drug metabolism in rat hepatocytes assessed as formation of sulfoxide metabolites at 10 uM by HRAMS analysis; format: ADME, cell-based, Hepatocyte
Hippocampus [2] = test: Induction of neuroplasticity in C57BL/6J mouse assessed as increase in BDNF mRNA expression in brain hippocampus at 0.3 mg/kg, sc single dose by RT-PCR analysis; format: functional, organism-based
[3] = target: Adrenergic receptor alpha-2 (Rattus norvegicus) (UniProt P22086+P19328+P22909); test: Displacement of [3H]RX 821002 from rat cerebral cortex alpha2 adrenergic receptor assessed as remaining activity at 10 uM after 60 mins by scintillation counting method relative to control
Mus musculus [4] = test: Psychedelic effect in C57BL/6J mouse assessed as maximal number of 5-HT2A receptor dependent head-twitch responses by visual observation at 3 mg/kg, sc (reference value: 3); format: functional
[5] = Metabolic stability in rat liver S9 fractions assessed as half life; format: ADME, subcellular; conditions: liver S9 fraction
[6] = target: T1, 5-hydroxytryptamine receptor 2C (Homo sapiens, UniProt P28335); test: Binding affinity to human [125I]LSD-labeled 5-HT2C receptor expressed in HEK293 cell membrane incubated for 60 mins; format: cell membranes
T1 sequence (P28335 whole entry): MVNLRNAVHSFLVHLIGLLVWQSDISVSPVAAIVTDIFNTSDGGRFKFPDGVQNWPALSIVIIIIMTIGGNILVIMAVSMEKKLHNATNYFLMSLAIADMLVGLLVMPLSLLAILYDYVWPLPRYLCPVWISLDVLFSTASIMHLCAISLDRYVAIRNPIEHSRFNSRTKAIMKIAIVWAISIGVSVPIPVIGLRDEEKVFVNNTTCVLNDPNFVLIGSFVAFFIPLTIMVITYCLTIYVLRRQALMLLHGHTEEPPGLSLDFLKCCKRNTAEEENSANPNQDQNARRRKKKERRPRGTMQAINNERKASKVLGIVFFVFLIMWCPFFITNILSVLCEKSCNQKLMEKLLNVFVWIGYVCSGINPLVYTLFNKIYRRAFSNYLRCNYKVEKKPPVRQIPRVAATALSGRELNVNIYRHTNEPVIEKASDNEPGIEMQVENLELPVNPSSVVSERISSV

[7] = target: 5-hydroxytryptamine receptor 2A (Homo sapiens, UniProt P28223); test: Displacement of [3H]LSD from human 5-HT2A receptor expressed in HEK293 cell membrane incubated for 90 mins by microbeta liquid scintillation counting method; format: cell membranes
Chain of 5-hydroxytryptamine receptor 2A (P28223 whole entry): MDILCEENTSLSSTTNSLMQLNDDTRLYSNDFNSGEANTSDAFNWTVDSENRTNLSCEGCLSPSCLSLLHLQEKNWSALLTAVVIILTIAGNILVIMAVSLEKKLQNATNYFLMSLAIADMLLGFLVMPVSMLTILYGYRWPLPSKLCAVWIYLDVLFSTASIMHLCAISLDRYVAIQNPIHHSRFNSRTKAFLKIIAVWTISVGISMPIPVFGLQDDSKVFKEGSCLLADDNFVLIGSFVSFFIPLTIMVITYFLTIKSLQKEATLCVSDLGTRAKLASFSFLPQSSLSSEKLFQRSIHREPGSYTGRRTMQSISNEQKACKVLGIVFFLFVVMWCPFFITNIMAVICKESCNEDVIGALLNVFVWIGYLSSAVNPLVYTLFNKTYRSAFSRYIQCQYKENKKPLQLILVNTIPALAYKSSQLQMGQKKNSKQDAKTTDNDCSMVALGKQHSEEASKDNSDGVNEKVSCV

[8] = Renal clearance in beagle dog at 0.4 mg/kg, iv measured upto 24 hrs; format: ADME, organism-based, Canis lupus familiaris; conditions: in vivo
Mus musculus [9] = test: Psychedelic effect in C57BL/6J mouse assessed as induction of 5-HT2A receptor dependent head-twitch responses by visual observation at 3 mg/kg, sc in presence of ketanserin 1 mg/kg, sc measured after 24 hrs; format: functional, organism-based
[10] = MRTlast in Wistar rat brain at 5 mg/kg, po measured upto 48 hrs; format: ADME, organism-based
[11] = Metabolic stability in human hepatocytes assessed as half life at 10 uM; format: ADME, cell-based, Hepatocyte
[12] = Ex vivo binding in C57BL/6J mouse brain frontal cortex assessed as specific binding [3H]Cimbi-36 at 1 mg/kg, sc measured after 100 mins by liquid scintillation counting analysis (reference value: 1092 +/- 53); format: functional; conditions: 1.667 h
[13] = Ex vivo binding in C57BL/6J mouse brain frontal cortex assessed as inhibition of [3H]Cimbi-36 binding at 1 mg/kg, sc measured after 15 mins by liquid scintillation counting analysis (reference value: 0%); format: functional; conditions: 0.25 h
[14] = AUClast in male Sprague-Dawley rat brain at 1 mg/kg, iv measured upto 8 hrs by LC-MS/MS analysis; format: ADME, organism-based
Mus musculus [15] = test: Induction of neuroplasticity in C57BL/6J mouse assessed as increase in c-Fos mRNA expression in brain frontal cortex at 3 mg/kg, sc single dose by RT-PCR analysis; format: functional, organism-based
[16] = Initial plasma concentration in beagle dog at 0.4 mg/kg, iv measured upto 24 hrs; format: ADME, organism-based, Canis lupus familiaris
Hippocampus [17] = test: Induction of neuroplasticity in C57BL/6J mouse assessed as increase in CREB1 mRNA expression in brain hippocampus at 3 mg/kg, sc single dose by RT-PCR analysis; format: functional, organism-based
[18] = MRTlast in Wistar rat plasma at 1 mg/kg, iv measured upto 48 hrs; format: ADME, organism-based
[19] = Tmax in beagle dog at 2 mg/kg, po measured upto 24 hrs; format: ADME, organism-based, Canis lupus familiaris; conditions: in vivo
[20] = Brain to plasma ratio in Wistar rat at 1 mg/kg, iv measured upto 48 hrs; format: ADME, organism-based; conditions: read-out: BPR
[21] = Absolute oral bioavailability in Wistar rat plasma at 5 mg/kg, […] measured upto 48 hrs; format: ADME, organism-based
[22] = target: Alpha-2A adrenergic receptor (Homo sapiens, UniProt P08913); test: Displacement of [3H]-rauwolscine from human recombinant adrenergic alpha-2A receptor expressed in CHO-K1 cells incubated for 60 mins by […] analysis relative to control; format: cell-based
Chain of Alpha-2A adrenergic receptor (P08913 whole entry): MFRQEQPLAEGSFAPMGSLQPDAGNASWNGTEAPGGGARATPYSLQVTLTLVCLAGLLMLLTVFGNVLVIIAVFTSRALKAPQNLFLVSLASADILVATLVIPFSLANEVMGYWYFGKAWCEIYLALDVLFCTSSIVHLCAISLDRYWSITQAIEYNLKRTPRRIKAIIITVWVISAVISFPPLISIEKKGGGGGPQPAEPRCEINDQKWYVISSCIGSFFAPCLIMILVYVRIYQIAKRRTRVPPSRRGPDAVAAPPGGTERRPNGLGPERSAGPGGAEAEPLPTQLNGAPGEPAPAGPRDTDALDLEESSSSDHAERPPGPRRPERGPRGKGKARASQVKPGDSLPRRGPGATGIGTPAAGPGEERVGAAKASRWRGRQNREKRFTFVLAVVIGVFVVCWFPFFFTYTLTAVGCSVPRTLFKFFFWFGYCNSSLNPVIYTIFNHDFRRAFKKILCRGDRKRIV

[23] = Initial plasma concentration in Wistar rat at 1 mg/kg, iv measured upto 48 hrs; format: ADME, organism-based
[24] = Half life in Wistar rat brain at 5 mg/kg, po measured upto 48 hrs; format: ADME, organism-based
Hippocampus [25] = test: Induction of neuroplasticity in C57BL/6J mouse assessed as increase in PSD-95 mRNA expression in brain hippocampus at 0.3 mg/kg, sc single dose by RT-PCR analysis; format: functional, organism-based
Hippocampus [26] = test: Induction of neuroplasticity in C57BL/6J mouse assessed as increase in IGF1 mRNA expression in brain hippocampus at 0.3 mg/kg, sc single dose by RT-PCR analysis; format: functional, organism-based
Mus musculus [27] = test: Psychedelic effect in C57BL/6J mouse assessed as number of 5-HT2A receptor dependent head-twitch responses by visual observation at 3 mg/kg, sc measured after 24 hrs; format: functional
[28] = Half life in beagle dog at 0.4 mg/kg, iv measured upto 24 hrs; format: ADME, organism-based, Canis lupus familiaris; conditions: in vivo
[29] = Oral bioavailability in beagle dog at 2 mg/kg measured upto 24 hrs; format: ADME, organism-based, Canis lupus familiaris; conditions: in vivo
[30] = target: Muscarinic acetylcholine receptor M4 (Homo sapiens) (UniProt P08173); test: Displacement of [3H]4-DAMP from human recombinant muscarinic M4 receptor expressed in HEK293 cells at 10 uM incubated for 60 mins by radiometric based scintillation counter assay relative to control; format: cell-based
Chain of Muscarinic acetylcholine receptor M4 (Homo sapiens) (P08173 whole entry): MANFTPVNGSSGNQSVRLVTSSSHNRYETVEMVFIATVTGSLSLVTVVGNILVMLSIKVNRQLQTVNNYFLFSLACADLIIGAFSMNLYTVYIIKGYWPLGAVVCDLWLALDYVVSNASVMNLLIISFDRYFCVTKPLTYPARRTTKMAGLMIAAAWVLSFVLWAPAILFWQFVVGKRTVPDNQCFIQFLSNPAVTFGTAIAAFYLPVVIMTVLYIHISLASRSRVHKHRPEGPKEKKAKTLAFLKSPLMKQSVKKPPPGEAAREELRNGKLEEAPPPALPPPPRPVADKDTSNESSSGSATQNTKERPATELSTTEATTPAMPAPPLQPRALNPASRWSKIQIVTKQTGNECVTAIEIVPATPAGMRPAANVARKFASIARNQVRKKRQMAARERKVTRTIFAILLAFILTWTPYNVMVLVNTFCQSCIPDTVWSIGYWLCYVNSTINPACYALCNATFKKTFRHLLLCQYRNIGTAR

[31] = Ex vivo binding in C57BL/6J mouse brain frontal cortex assessed as specific binding [3H]Cimbi-36 at 1 mg/kg, sc measured after 300 mins by liquid scintillation counting analysis (reference value: 1092 +/- 53); format: functional; conditions: 5 h
[32] = Cmax in Wistar rat brain at 1 mg/kg, iv measured upto 48 hrs; format: ADME, organism-based
Hippocampus [33] = test: Induction of neuroplasticity in C57BL/6J mouse assessed as increase in SYN1 mRNA expression in brain hippocampus at 3 mg/kg, sc single dose by RT-PCR analysis; format: functional, organism-based
[34] = target: Alpha-2B adrenergic receptor (Homo sapiens, UniProt P18089); test: biochemical; format: cell-based, CHO-K1
Chain of Alpha-2B adrenergic receptor (P18089 whole entry): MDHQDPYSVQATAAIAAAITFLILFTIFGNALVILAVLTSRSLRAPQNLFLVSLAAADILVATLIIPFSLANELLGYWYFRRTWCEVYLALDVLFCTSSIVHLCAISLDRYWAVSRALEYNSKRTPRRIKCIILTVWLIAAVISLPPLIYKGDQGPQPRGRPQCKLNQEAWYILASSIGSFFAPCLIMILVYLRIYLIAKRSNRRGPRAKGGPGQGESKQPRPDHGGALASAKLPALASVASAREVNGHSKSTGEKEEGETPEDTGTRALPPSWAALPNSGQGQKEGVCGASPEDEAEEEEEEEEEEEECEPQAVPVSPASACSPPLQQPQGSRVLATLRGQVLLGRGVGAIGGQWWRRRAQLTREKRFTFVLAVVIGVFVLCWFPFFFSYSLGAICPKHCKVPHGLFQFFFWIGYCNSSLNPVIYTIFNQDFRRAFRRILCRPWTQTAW

[35] = Metabolic stability in monkey liver S9 fractions assessed as half life; format: ADME, subcellular, Macaca fascicularis; conditions: cynomolgus monkey, liver S9 fraction

Structure (SMILES): COc1cc([Se]C(F)(F)F)c(OC)cc1CCN.Cl
- Drug metabolism [1]: Metabolite_Detected
- Activity (Hippocampus [2]): inactive
- Activity [3]: 97%
- Activity (Mus musculus [4]): 23
- half-life [5]: 1.27 h
- Ki [6]: 6.7 nM
- Ki ([7]; read-out: Ki): 3.2 nM
- Ki ([7]; read-out: pKi (converted)): 3.02 nM
- CL renal at 24 h [8]: 0.036 L/h/kg
- Activity (Mus musculus [9]): inactive
- MRT last at 48 h [10]: 3.3 h
- half-life at 10 µM [11]: 16 h
- Activity [12]: 820
- inhibition in vivo at 1 mg/kg [13]: 11%
- AUC(0-t) at 8 h [14]: 3.22 µg·h/mL
- Activity (Mus musculus [15]): Active
- C0 at 24 h [16]: 0.121 µg/mL
- Activity (Hippocampus [17]): inactive
- MRT last at 48 h [18]: 0.62 h
- Tmax [19]: 2 h
- Kp at 48 h [20]: 64.3
- bioavailability [21]: 19.1%
- Ki [22]: 72 nM
- C0 at 48 h [23]: 0.0672 µg/mL
- half-life [24]: 4.71 h
- Activity (Hippocampus [25]): inactive
- Activity (Hippocampus [26]): inactive
- Activity (Mus musculus [27]): 25
- half-life [28]: 4.31 h
- bioavailability [29]: 138%
- inhibition [30]: 86%
- Activity [31]: 857
- Cmax [32]: 0.89 µg/mL
- Activity (Hippocampus [33]): inactive
- Ki [34]: 1050 nM
- half-life [35]: 0.633 h

— ChEMBL document CHEMBL5543140 (J Med Chem, 2024)
